# Legend:
# Assay in all cases: MPA toxicity by MTT assay
# V79 cells = format: cell-based, Chinese hamster
# Experimental: (§1) The mammalian cells (2×10^7) (i.e. V79, MDA-MB-231, PC3, COS7) were washed once with phosphate buffered saline (PBS), resuspended in 400 μl of Cytomix buffer, placed in an electroporation cuvette and transfected with 10 μg of DNA by electroporation at 200V, 30 ms, in an ElectroSquarePorator T280 electroporator (BTX, Inc., San Diego, Calif.). Immediately after electroporation, the cuvettes were placed on ice for 10–15 min. After that the cells were washed once in PBS and 1×10^6 viable cells, as determined by trypan blue exclusion, were re-suspended in 10 ml of growth medium in 100 mm tissue culture plates, incubated overnight at 37° C. and treated the next day with 0.8 μg/ml of MPA (stock concentration at 14.2 mg/ml in DMSO, Sigma, St. Louis, Mo.) or 600 μg/ml of G418. For the different assays, cells were obtained from either individual or pooled MPA-resistant colonies. For colony isolation, visible individual colonies were each picked and aspirated into a glass Pasteur pipette and transferred into a well of a 24-well tissue culture plate. The next day, after rinsing the wells with the colonies with PBS and incubation for 1–2 min in a drop of a trypsin/EDTA solution, the cells within each well were dispersed by forceful pipetting. Next, the cells were incubated in growth medium to generate a monolayer culture, which was used to determine the cells' susceptibility to MPA. Cultures were also obtained from single MPA-resistant cells derived from pooled colonies by seeding 2.5 cells/ml into 96-well flat-bottom microtiter plates in 200 μl of growth medium/well and only cultures deriving from wells that were initially found to contain single cells were used. MPA toxicity was determined by the MTT (methylthiazoletetrazolium) assay (described in detail below) while the expression of the green fluorescent protein (GFP) was detected by fluorescence microscopy and/or flow cytometry.
# (§2) Cell survival and proliferation was measured using the MTT assay, which detects active mitochondria and as a result viable cells. For this assay, 2×10^4 cells were suspended in 200 μl of growth medium/well in 96-well flat-bottom microtiter plates with various stimuli and incubated at 37° C. After 6 d, 10 μl of MTT solution (5 mg/ml in PBS) (Sigma, St. Louis, Mo.) was added to each well and the plates were incubated for an additional 4 h at 37° C. In the case of V79 cells, which grow twice as fast as the other cell lines, the MTT solution was added after 3 d. The plates were then centrifuged at 1000 rpm for 5 min, supernatants discarded and 100 µl of DMSO added per well, and the plates were read at 540 nm using a microtiter plate reader.
# PC3 cells = format: cell-based, human
# Experimental: as §1, §2
# MDA-MB-231 cells = format: cell-based, human
# Experimental: as §1, §2
# COS7 cells = format: cell-based, monkey
# Experimental: as §1, with “Cultures were also obtained from single MPA-resistant cells derived from pooled colonies by seeding 2.5 cells/ml into 96-well flat-bottom microtiter plates in 200 μl of growth medium/well and only cultures deriving from wells that were initially found to contain single cells were used.” left out
# Cell survival and proliferation was measured using the MTT assay, which detects active mitochondria and as a result viable cells. […] The plates were then centrifuged at 1000 rpm for 5 min, supernatants discarded and 100 µl of DMSO added per well, and the plates were read at 540 nm using a microtiter plate reader.
structure (smiles),measurement,setting,value
"COc1c(C)c2c(c(O)c1C/C=C(\C)CCC(=O)O)C(=O)OC2 [MPA, mycophenolic acid]",MPA concentration to whose cytotoxic effect the cells were resistant,"V79 cells; 7 individual MPA-resistant V79 colonies (pFLAG-IMPDH transfected), MTT assay",up to 50 μg/ml
same,MPA concentration at which cells failed to grow,V79 cells; parental (not transfected) V79 cells,≤ 0.8 µg/mL
same,MPA concentration to whose cytotoxic effect the cells were resistant,V79 cells; single cell-derived cultures from pooled MPA-resistant V79 colonies,up to 50 μg/ml
same,Time after MPA treatment at which growth inhibition was detected,V79 cells; wild type V79 cells,3 days
same,MTT staining of control cultures after 4 weeks of MPA treatment,"PC3 cells; control (not transfected parental) PC3 cultures, 4 weeks",no MTT staining above background levels
same,MPA concentration to whose cytotoxic effect the cells were resistant,PC3 cells; single cell-derived cultures from pooled MPA-resistant PC3 colonies,up to 50 μg/ml
same,Time after MPA treatment at which growth inhibition was detected,PC3 cells; wild type PC3 cells,6 days
same,MTT staining of control cultures after 4 weeks of MPA treatment,"MDA-MB-231 cells; control (not transfected parental) MDA-MB-231 cultures, 4 weeks",no MTT staining above background levels
same,MPA concentration to whose cytotoxic effect the cells were resistant,MDA-MB-231 cells; single cell-derived cultures from pooled MPA-resistant MDA-MB-231 colonies,up to 50 μg/ml
same,Time after MPA treatment at which growth inhibition was detected,MDA-MB-231 cells; wild type MDA-MB-231 cells,6 days
same,MTT staining of control cultures after 4 weeks of MPA treatment,"COS7 cells; control (not transfected parental) COS7 cultures, 4 weeks",no MTT staining above background levels
same,MPA concentration to whose cytotoxic effect the cells were resistant,COS7 cells; single cell-derived cultures from pooled MPA-resistant COS7 colonies,up to 50 μg/ml
same,Time after MPA treatment at which growth inhibition was detected,COS7 cells; wild type COS7 cells,6 days
